Data set [1] relates to RBL-2H3 cells. Kind of data set: Inhibition of mast cell degranulation (β-hexosaminidase release). It counts as cell-based. To be noted: Rattus norvegicus, RBL-2H3 cells sensitized with anti-DNP IgE, triggered with DNP-HSA. From the text: Mast cells are key effector cells involved in allergic and inflammatory diseases, and the Rat Basophilic Leukemia clone 2H3 (RBL-2H3) cell line is a commonly used model of allergen dependent immune modulator release (degranulation) in mast cells. On their surface, they express the high affinity receptor for IgE (FcεRI) Upon binding of antigen-specific IgE to the receptor, cells become sensitized to the IgE specific antigen (allergen). When IgE-sensitized cells then encounter multivalent antigen, the antigen clusters IgE-FcεRI complexes and initiates a signal transduction cascade that leads to degranulation, that is, the release of inflammatory mediators, such as cytokines, eicosanoids, histamine and enzymes. The assay can be used as a screening method to identify immune-modulating compounds, in particular compounds useful in the medical management of allergic and inflammatory diseases and asthma. β-hexosaminidase was previously shown to be released with the same kinetics as histamine (Schwartz et al., J Immunology; 123:1445-1450 (1979)), thus offering a simple means to monitor degranulation. The RBL-2H3 cell line has been successfully used to identify compounds with anti-allergic activity (Choo et al. Planta Med., 69:518-522 (2003)).
Cell Culture: RBL-2H3 cells obtained from the German Collection of Microorganisms and Cell Cultures (ACC312) (Braunschweig, Germany) were maintained in 70% Minimum Essential Medium with Earle's Salts, 20% RPMI 1640 Medium, 10% FBS and 2 mM L-glutamine in 95% air/5% CO2 at 37° C. and routinely checked for mycoplasma contamination. Cells were passaged every 3-4 days; after washing cells once with 35 ml PBS cells were incubated 8 min with 5 ml 0.05% Trypsin-EDTA solution at 37° C. Cells were removed from the incubator, 15 ml culture medium was added and cells were resuspended by repeated pipetting.
Cell seeding: cells were harvested with Trypsin-EDTA as described and 50-100 μl cell suspension seeded into Costar CellBind 24 well cluster plates (no. 3337). Plates were kept for 30 min at RT under the sterile hood before being transferred to the incubator. Cells were used within one or two days after seeding.
For sensitization, cells for immediate use were sensitized 6-12 h after plating; cells to be used the following day were sensitized 26-38 h after plating. Culture plates were removed from the incubator and checked for cell growth and contamination. The medium was discarded and cells were sensitized with anti-DNP IgE (0.4 μg/ml) in 0.4 ml culture medium overnight. Following overnight sensitization, cells were washed with 0.8 ml pre-warmed TyB and 0.38 ml test compound or vehicle control (supplemented or not with 1% FBS) were added to duplicate wells. Samples were adjusted to contain 1% vehicle for test compounds dissolved in organic solvents. Cells were incubated for 1 h at 37° C. At the end of the incubation period, cells were routinely stimulated with 20 μl DNP-HSA (2 μg/ml; final concentration 0.1 μg/ml) diluted in TyB and cells were incubated for 15 min at 37° C. Alternatively, cells were stimulated with 20 μl 5 μM ionomycin (final concentration 0.25 μM) or 20 μl 5 μM thapsigargin (final concentration 0.25 μM), both in the absence or presence of 20 nM PMA (final concentration). […]
MUG substrate solution, 100 μl, were added to supernatant and lysate samples and plates were incubated 30 min at 37° C. […] Fluorescene was measured at 365 nm excitation and 440 nm emmission wavelengths. […]

For data set [2], the system named is RBL-2H3 cells. Kind of data set: Maximum tolerated concentration (cytotoxicity by lactate dehydrogenase release). The class given is cell-based, rat. To be noted: for MTC (maximum tolerated concentration): highest concentration not causing cytotoxicity (LDH release); for SI (safety index): ratio between MTC and IC50. From the text: The safety index (SI) of a test compound is the ratio between the maximum tolerated concentration and the IC50 and is used as a measure of the relative safety of the test compound.
In general terms: LDH in the medium is a marker of cell lysis.

The subject of data set [3] is DTH response in mice. The class given is in vivo. To be noted: 24 h after challenge. As for the experimental part: The anti-inflammatory and anti-allergic effects of compound 1a was assessed in a mouse model of skin delayed-type hypersensitivity (DTH) reactions and compared to a vehicle control and to the reference drug, dexamethasone. DTH reactions are antigen-specific cell-mediated immune responses, driven primarily by T helper type 1 (Th1) cells, similar to the tuberculin immunization response. The immune reaction induced by an ovalbumin challenge to animals previously sensitized with ovalbumin in Complete Freund's Adjuvant, is characterized by swelling (edema) at the site of challenge, e.g. the mouse ear. Dexamethasone, an anti-inflammatory steroid, reduces cell-mediated immune responses and was employed to validate the responsiveness of the assay to pharmacological treatment.
Female BALB/cJW mice were bred at the University of Lodz, Lodz, Poland and housed in groups of 8 in makrolon cages with a 12 h light-dark cycle. Mice were given free access to food (Agropol S. j., Motycz, Poland) and water.
Sensitization: The protein antigen, ovalbumin, was reconstituted in PBS at 4 mg/ml. An ovalbumin-CFA emulsion was prepared by mixing the protein solution with the CFA suspension at a ratio of 1:1, using two Luer-lock syringes. The emulsion was tested by putting a drop of emulsion onto PBS; if the emulsion remained as a tight droplet on the PBS, the emulsion was deemed ready. Mice were sensitized by subcutaneously injecting 25 μL of emulsion into each side of the tail (100 μg ovalbumin per mouse).
Challenge: On the sixth day after sensitization, DTH was elicited by challenging animals subcutaneously (gauge 30 needle, B. Braun Melsungen, Melsungen, Germany) in the left ears with 10 μL of a 1% suspension of heat-aggregated ovalbumin (HOVA) (100 μg ovalbumin per mouse). The right ears were administered subcutaneously with PBS and served to determine the individual differences in ear thicknesses. HOVA was prepared by heating a 5% solution of ovalbumin in saline for 1 h at 80° C. with occasional swirling. After cooling to room temperature and centrifugation (400 g, 10 min at 4° C.), the pellet was washed twice with saline, resuspended at 2% in PBS and aliquots stored at −30° C. Before injection, HOVA was diluted with an equal volume of PBS and sonicated. Ear thickness was measured with a precise spring-loaded caliper (Art. No. 7309, Mitutoyo, Kawasaki, Japan) before challenge, and 24 h after challenge.
Sensitization, challenge and ear thickness measurement were performed under anesthesia (ketamine 80 mg/kg plus xylazine 8 mg/kg, intraperitoneally).
The anti-inflammatory effects of compound 1a were compared to a vehicle control (0.5% methyl cellulose solution) and to the reference drug, dexamethasone. Test compound was given at 25 or 100 mg/kg orally by gavage (Art. No. 432093, Harvard Apparatus GmbH, March-Hugstetten, Germany) 16 h and 3 h before sensitization and then twice daily with the final dose given 3 h prior to ear challenge (a total of 14 administrations). Dexamethasone was given at 0.1 or 1 mg/kg orally by gavage 3 h before sensitization and once daily with the final dose given 3 h prior to antigen challenge (a total of 7 administrations). All administrations were given in a volume of 10 mL/kg.
To account for individual variability, the increase in right ear thickness, before and 24 h after administration of PBS, was subtracted from the HOVA-induced increase in left ear thickness. […]
Mean and standard deviation (SD) were calculated from individual ear edema values. […]

Data set [4] concerns allergic contact dermatitis response in mice. Kind of data set: Allergic contact dermatitis (TDI) model in mice, mouse ear swelling test. It counts as in vivo. How it is done:
The anti-inflammatory and anti-allergic effects of compound 1a were assessed in a mouse model of allergic contact dermatitis, a response driven primarily by T helper type 2 (Th2) cells. […] In this model, an allergic dermatitis response is obtained by sensitizing mice to TDI and subsequently challenging them with antigen by topical administration onto the ears. A quantitative assessment of anti-inflammatory and anti-allergic effects of topically or orally administered test compounds is possible by measuring the resulting ear swelling.
Female BALB/c-mice were obtained from Charles River (Sulzfeld, Germany) at age 8 weeks. All animals were housed in groups of eight per cage at 22° C. with a 12 h light/dark-cycle. Water and a standard diet (Altromin, Lage/Lippe, Germany) were available ad libitum. All animals were acclimatized for one week before experimental procedures were commenced.
Experimental procedures for BALB/c mice housing, TDI sensitization and challenge, and measurement of ear thickness were performed as previously described (Baumer et al., J Pharm Pharmacol. 55:1107-1114 (2003)) with the following modifications. For active sensitization, 100 μL of 5% (w/v) TDI was administered to the shaved and stripped abdominal epidermis on day one, and for the next three consecutive days, 50 μL of 5% (w/v) TDI was applied. The allergic reaction was boosted 21 days later by application of 50 μL of 0.5% (w/v) TDI. For the examination of test compound effects, the left ears were used for the TDI challenge (20 μL of 0.5% in acetone) and ear thickness measured 3 h before and 24 h after challenge.
Administration time: to determine optimal time for administration treatment groups were treated orally by gavage with 100 mg/kg of compound 1a (suspended in 0.5% tylose, 10 mL/kg) 1, 4 or 16 h before topical TDI challenge. One group was treated with 100 mg/kg miltefosine orally, 16 h before challenge (based on available data for optimal administration time for miltefosine) and vehicle treated mice received tylose (10 mL/kg) orally, 4 h before challenge.
Comparison with dexamethasone: one group of mice was treated orally with compound 1a at 100 mg/kg suspended in 0.5% tylose, 4 h before topical TDI challenge. Vehicle treated mice received 0.5% tylose orally 4 h before challenge. As a positive control, dexamethasone was administered in saline solution at 1 mg/kg or 3 mg/kg, 2 h and 30 min before challenge and 1 h after challenge. The dose and dosing scheme for dexamethasone was based on previous experience showing a maximal effect in this model.
[…] The solution was applied, 2 h before topical TDI challenge by administration of 10 μl onto each of the inner and outer surfaces of the left ears. A vehicle group (n=5) was treated with propyleneglycol. As a positive control, diflorasone diacetate was administered at 0.01% (low dose) and 0.05% (high dose) in 20 μl acetone, 2 h before challenge. A basal control group was left untreated.
Mean and standard error of the mean (SEM) were calculated from individual ear edema values. Statistical evaluation was a one-way analysis of variance (ANOVA) (if the test for normal distribution was passed) or the Kruskal-Wallis one-way ANOVA on Ranks (if the normal distribution test failed). Both were followed by a post-hoc test (Dunnett's method or Dunn's test, respectively). A p<0.05 was considered to be significant.

The test system of data set [5] is collagen type II-induced arthritis (CIA) in mice. Particulars: prophylactic, 0.3 mg/kg intraperitoneally once daily.

pIC50: −log10 of the molar value. Where “and” joins values, the source holds several entries; their conditions need not be identical. Equal values may be shown once. Where a name gives a salt, the structure may show the parent alone. Read-outs that look alike come from different tables or passages of the source. Marks after values point to notes of the source that are not given here.

As usually defined, the pIC50 is −log10 of the IC50, conventionally taken in molar units. With `CCCCCCCCCCCCCCN(C)CC(=O)N(C)C[C@H](O)[C@@H](O)[C@H](O)[C@H](O)CO` [Compound 1b, N-(2-(Methyl(tetradecyl)amino)acetyl)-N-methyl-D-glucamine hydrotrifluoroacetate], the pIC50 in data set [1] is 5.31. In data set [2], the “MTC (maximum tolerated concentration)” value stood at 50 µM and the “SI (safety index)” value was 10.2.
The corresponding values for `CCCCCCCCCCCCN(C)CC(=O)N(C)C[C@H](O)[C@@H](O)[C@H](O)[C@H](O)CO` [Compound 1c, N-(2-(Methyl(dodecyl)amino)acetyl)-N-methyl-D-glucamine hydrotrifluoroacetate] are 4.91, 100 µM and 8.1.
Consider `CCCCCCCCCCCCCC[N+](C)(C)CC(=O)N(C)CC(O)CO` (stereo not drawn) [Compound 1d, N-(2-(Dimethyl(tetradecyl)ammonio)acetyl)-N-methyl-2,3-dihydroxypropylamine trifluoroacetate], for which, in data set [1], the negative-log IC50 (pIC50) was 5.51. Moreover, in data set [2], the “MTC (maximum tolerated concentration)” value came to 75 µM and the “SI (safety index)” value is 24.2.
Consider `C[C@@H]1C[C@H]2[C@@H]3CCC4=CC(=O)C=C[C@]4(C)[C@@]3(F)[C@@H](O)C[C@]2(C)[C@@]1(O)C(=O)CO` [Dexamethasone, reference compound], for which the “Inhibition of mouse ear swelling” value is 14% in data set [3] (0.1 mg/kg orally once daily); 53% in data set [3] (1.0 mg/kg orally once daily); 78.6*** % in data set [4] (comparison with dexamethasone, 1 mg/kg oral); 78% in data set [4] (comparison with dexamethasone, 1 mg/kg oral, listed as dexamethasone); 87.1*** % in data set [4] (comparison with dexamethasone, 3 mg/kg oral); 87% in data set [4] (comparison with dexamethasone, 3 mg/kg oral, listed as dexamethasone). In data set [5], the “clinical signs of arthritis” value is recorded as “nearly completely suppressed”.
Regarding `CCCCCCCCCCCCCCCCOP(=O)([O-])OCC[N+](C)(C)C` [Miltefosine, reference compound], the negative logarithm of the IC50 (pIC50) in data set [1] is 5.38. Also, in data set [2], the “MTC (maximum tolerated concentration)” value stood at 25 µM and the “SI (safety index)” value is reported as 6.0. Also, in data set [4] (100 mg/kg oral, 16 h before challenge), the “inhibitory efficacy relative to 1a at its optimal administration time of 4 h” value is recorded as 75%. In data set [4] (administration time study, 100 mg/kg oral, 16 h before TDI challenge), the “Inhibition of mouse ear swelling” value was 47% and 47.3^§ %.

For the origin of these results see patent US10143668B2, “Hydroxy-substituted amino and ammonium derivatives and their medical use” (GRI BIO, INC., priority 2011, dated 2018).
